Experiments:
Assay in all cases: In vitro assay of antibacterial activity (agar dilution MIC)
Type in all cases: cell-based
[1] = tested on: Micrococcus luteus ATCC 4698; conditions: BHI agar, 35-37 °C, 20 to 24 hours, unit assumed
Protocol: (§1) Representative compounds of the present invention were assayed in vitro for antibacterial activity as follows: Twelve petri dishes containing successive aqueous dilutions of the test compound mixed with 10 mL of sterilized Brain Heart Infusion (BHI) agar (Difco 0418-01-5) were prepared. Each plate was inoculated with 1:100 (or 1:10 for slow-growing strains, such as Micrococcus and Streptococcus) dilutions of up to 32 different microorganisms, using a Steers replicator block. The inoculated plates were incubated at 35-37 °C for 20 to 24 hours, In addition, a control plate, using BHI agar containing no test compound, was prepared and incubated at the beginning and end of each test.
(§2) An additional plate containing a compound having known susceptibility patterns for the organisms being tested and belonging to the same antibiotic class as the test compound was also prepared and incubated as a further control, as well as to provide test-to-test comparability. Erythromycin A was used for this purpose.
(§3) After incubation, each plate was visually inspected. The minimum inhibitory concentration (MIC) was defined as the lowest concentration of drug yielding no growth, a slight haze, or sparsely isolated colonies on the inoculum spot as compared to the growth control. […]

[2] = tested on: Pseudomonas aeruginosa DPHD-5263; conditions: BHI agar, 35-37 °C, 20 to 24 hours, in µg/mL (unit assumed)
Protocol: as §1, §2, §3

[3] = tested on: Enterobacter aerogenes ATCC 13048; conditions: BHI agar, 35-37 °C, 20 to 24 hours, unit assumed
Protocol: as §1, §2, §3

[4] = tested on: Providencia struartii CMX 640; conditions: BHI agar, 35-37 °C, 20 to 24 hours, unit assumed
Protocol: as §1, §2, §3

[5] = tested on: Pseudomonas aeruginosa K799/WT; conditions: BHI agar, 35-37 °C, 20 to 24 hours, unit assumed
Protocol: as §1, §2, §3

[6] = tested on: Pseudomonas capacia 2961; conditions: BHI agar, 35-37 °C, 20 to 24 hours, in µg/mL (unit assumed)
Protocol: as §1, §2, §3

[7] = tested on: Pseudomonas aeruginosa 5007; conditions: BHI agar, 35-37 °C, 20 to 24 hours, unit assumed
Protocol: as §1, §2, §3

[8] = tested on: Staphylococcus aureus CMX 553; conditions: BHI agar, 35-37 °C, 20 to 24 hours, unit assumed
Protocol: as §1, §2, §3

[9] = tested on: Klebsiella pneumoniae ATCC 8045; conditions: BHI agar, 35-37 °C, 20 to 24 hours, unit assumed
Protocol: as §1, §2, §3

[10] = tested on: Pseudomonas aeruginosa K799/61; conditions: BHI agar, 35-37 °C, 20 to 24 hours, unit assumed
Protocol: as §1, §2, §3

[11] = tested on: Escherichia coli SS; conditions: BHI agar, 35-37 °C, 20 to 24 hours, unit assumed
Protocol: as §1, §2, §3

[12] = tested on: Streptococcus bovis A-5169; conditions: BHI agar, 35-37 °C, 20 to 24 hours, unit assumed
Protocol: as §1, §2, §3

[13] = tested on: Micrococcus luteus ATCC 9341; conditions: BHI agar, 35-37 °C, 20 to 24 hours, unit assumed
Protocol: as §1, §2, §3

[14] = tested on: Streptococcus pyogenes 930; conditions: BHI agar, 35-37 °C, 20 to 24 hours, unit assumed
Protocol: as §1, §2, §3

[15] = tested on: Staphylococcus aureus A-5278; conditions: BHI agar, 35-37 °C, 20 to 24 hours, unit assumed
Protocol: as §1, §2, §3

[16] = tested on: Staphylococcus epidermidis 3519; conditions: BHI agar, 35-37 °C, 20 to 24 hours, unit assumed
Protocol: as §1, §2, §3

[17] = tested on: Escherichia coli JUHL; conditions: BHI agar, 35-37 °C, 20 to 24 hours, in µg/mL (unit assumed)
Protocol: as §1, §2, §3

[18] = tested on: Pseudomonas aeruginosa BMH10; conditions: BHI agar, 35-37 °C, 20 to 24 hours, in µg/mL (unit assumed)
Protocol: as §1, §2, §3

[19] = tested on: Enterococcus faecium ATCC 8043; conditions: BHI agar, 35-37 °C, 20 to 24 hours, unit assumed
Protocol: as §1, §2, §3

[20] = tested on: Streptococcus pyogenes EES61; conditions: BHI agar, 35-37 °C, 20 to 24 hours, unit assumed
Protocol: as §1, §2, §3

[21] = tested on: Streptococcus agalactiae CMX 508; conditions: BHI agar, 35-37 °C, 20 to 24 hours, unit assumed
Protocol: as §1, §2, §3

[22] = tested on: Escherichia coli DC-2; conditions: BHI agar, 35-37 °C, 20 to 24 hours, unit assumed
Protocol: as §1, §2, §3

[23] = tested on: Staphylococcus aureus ATCC 6538P; conditions: BHI agar, 35-37 °C, 20 to 24 hours, unit assumed
Protocol: as §1, §2, §3

[24] = tested on: Escherichia coli KNK 437; conditions: BHI agar, 35-37 °C, 20 to 24 hours, unit assumed
Protocol: as §1, §2, §3

[25] = tested on: Staphylococcus aureus 1775; conditions: BHI agar, 35-37 °C, 20 to 24 hours, unit assumed
Protocol: as §1, §2, §3

[26] = tested on: Staphylococcus aureus NCTC10649M; conditions: BHI agar, 35-37 °C, 20 to 24 hours, unit assumed
Protocol: as §1, §2, §3

[27] = tested on: Staphylococcus aureus CMX 642A; conditions: BHI agar, 35-37 °C, 20 to 24 hours, unit assumed
Protocol: as §1, §2, §3

[28] = tested on: Escherichia coli H560; conditions: BHI agar, 35-37 °C, 20 to 24 hours, unit assumed
Protocol: as §1, §2, §3

[29] = tested on: Mycobacterium smegmatis ATCC 114; conditions: BHI agar, 35-37 °C, 20 to 24 hours, unit assumed
Protocol: as §1, §2, §3

[30] = tested on: Pseudomonas aeruginosa DPHD-2862; conditions: BHI agar, 35-37 °C, 20 to 24 hours, unit assumed
Protocol: as §1, §2, §3

[31] = tested on: Candida albicans CCH 442; conditions: BHI agar, 35-37 °C, 20 to 24 hours, unit assumed
Protocol: as §1, §2, §3

[32] = tested on: Staphylococcus aureus A5177; conditions: BHI agar, 35-37 °C, 20 to 24 hours, unit assumed
Protocol: as §1
(§4) An additional plate containing a compound having known susceptibility patterns for the organisms being tested and belonging to the same antibiotic class as the test compound was also prepared and incubated as a further control, as well as to provide test-to-test comparability.
as §3

[33] = tested on: Actinetobacter calcoaceticus CMX 669; conditions: BHI agar, 35-37 °C, 20 to 24 hours, unit assumed
Protocol: as §1, §4, §3

[34] = tested on: Streptococcus pyogenes PIU 2548; conditions: BHI agar, 35-37 °C, 20 to 24 hours, unit assumed
Protocol: as §1, §2, §3

[35] = tested on: Nocarrdia asteroides ATCC 9970; conditions: BHI agar, 35-37 °C, 20 to 24 hours, unit assumed
Protocol: as §1, §2, §3

Structure (SMILES)	MIC [2]	MIC [3]	MIC [4]	MIC [5]	MIC [6]	MIC [7]	MIC [8]	MIC [9]	MIC [11]	MIC [12]	MIC [13]	MIC [14]	MIC [15]	MIC [16]	MIC [17]	MIC [18]	MIC [19]	MIC [20]	MIC [21]	MIC [22]	further results
C#CCO[C@]1(C)C[C@@H](C)C(=O)[C@H](C)[C@@H](O)[C@](C)(O)[C@@H](CC)OC(=O)[C@H](C)[C@@H](O[C@H]2C[C@@](C)(OC)[C@@H](O)[C@H](C)O2)[C@H](C)[C@H]1O[C@@H]1O[C@H](C)C[C@H](N(C)C)[C@H]1O [Example 10, Compound of Formula (X): X is =O, R is -CH2-C≡CH]	> 100	> 100 µg/mL	> 100 µg/mL	> 100 µg/mL	>100	> 100 µg/mL	0.39 µg/mL	> 100 µg/mL	0.78 µg/mL	0.01 µg/mL	0.05 µg/mL	> 100 µg/mL	> 100 µg/mL	0.2 µg/mL	50	100	0.1 µg/mL	0.01 µg/mL	0.05 µg/mL	100 µg/mL	MIC [1]: 0.78 µg/mL; MIC [10]: 3.1 µg/mL; MIC [23]: 0.2 µg/mL; MIC [24]: > 100 µg/mL; MIC [25]: > 100 µg/mL; MIC [26]: 0.39 µg/mL; MIC [27]: 0.39 µg/mL; MIC [28]: 25 µg/mL; MIC [29]: 0.39 µg/mL; MIC [30]: > 100 µg/mL; MIC [31]: > 100 µg/mL; MIC [32]: 6.2 µg/mL; MIC [33]: 12.5 µg/mL
CC[C@H]1OC(=O)[C@H](C)[C@@H](O[C@H]2C[C@@](C)(OC)[C@@H](O)[C@H](C)O2)[C@H](C)[C@@H](O[C@@H]2O[C@H](C)C[C@H](N(C)C)[C@H]2O)[C@](C)(OCC(O)CN=[N+]=[N-])C[C@@H](C)C(=O)[C@H](C)[C@@H](O)[C@]1(C)O (stereo partly drawn) [Example 11, Compound of Formula (X): X is =O, R is -CH2-CHOH-CH2-N3]	> 100	> 100 µg/mL	> 100 µg/mL	> 100 µg/mL	> 100	> 100 µg/mL	0.78 µg/mL	> 100 µg/mL	1.56 µg/mL	0.2 µg/mL	0.05 µg/mL	> 100 µg/mL	> 100 µg/mL	0.78 µg/mL	100	> 100	0.39 µg/mL	0.05 µg/mL	0.05 µg/mL	> 100 µg/mL	MIC [34]: 25 µg/mL; MIC [23]: 0.78 µg/mL; MIC [35]: 0.1 µg/mL; MIC [24]: > 100 µg/mL; MIC [25]: > 100 µg/mL; MIC [26]: 0.78 µg/mL; MIC [27]: 1.56 µg/mL; MIC [28]: 50 µg/mL; MIC [29]: 0.39 µg/mL; MIC [30]: > 100 µg/mL; MIC [31]: > 100 µg/mL; MIC [32]: 6.2 µg/mL; MIC [33]: 25 µg/mL
